Measurements reported in patent publication US7396666B2, “Glycosyltransferase, nucleic acid encoding the glycosyltransferase and method of testing canceration using the nucleic acid” (National Institute of Advanced Industrial Science and …, priority 2002, dated 2008).
“Also recorded” adds a separate entry of the source. Read-outs that look alike come from different tables or passages of the source. Values belong to the molecule of their own block, whether it stands above or below them.

Legend:
Assay type in all cases: biochemical
G9 polypeptide [1] = biological target: T1, G9 polypeptide (Homo sapiens, UniProt Q7Z7M8); assay: Divalent metal ion requirement of G9 enzyme activity
T1 construct: made in house
T1 sequence (Q7Z7M8 26-397): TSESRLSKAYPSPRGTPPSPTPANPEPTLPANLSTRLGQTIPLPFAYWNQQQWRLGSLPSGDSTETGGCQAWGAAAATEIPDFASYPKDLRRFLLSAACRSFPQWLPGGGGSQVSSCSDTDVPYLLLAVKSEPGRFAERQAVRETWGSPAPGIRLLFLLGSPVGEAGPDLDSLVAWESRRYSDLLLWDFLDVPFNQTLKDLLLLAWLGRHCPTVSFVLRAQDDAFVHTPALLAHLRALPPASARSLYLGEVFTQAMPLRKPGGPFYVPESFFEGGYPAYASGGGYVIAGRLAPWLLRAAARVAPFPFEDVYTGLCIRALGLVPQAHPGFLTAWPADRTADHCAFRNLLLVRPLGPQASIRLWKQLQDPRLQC

G9 polypeptide [2] = biological target: T1, G9 polypeptide; assay: β1,3-N-acetylglucosaminyltransferase activity with synthetic mono-/oligosaccharide acceptor substrates ([14C]UDP-GlcNAc donor, scintillation counting); settings: for transferring activity for acceptor substrate (in words): GlcNAc transfer by G9 to synthetic acceptor substrates; for Relative activity: Substrate specificity of G9, 10 μM acceptor substrate, UDP-GlcNAc donor, 37° C., usually 16 hours, ND = not detected
Method: The FLAG peptide-fused G9 polypeptide obtained in the example above was measured for a β1,3-N-acetylglucosaminyltransferase activity with monosaccharaide/oligosaccharide/glycolipid/glycoprotein as substrates according to known methods (e.g., the above-described references and FEBS, 462, 289 (1999), J. Biol. Chem. 269, 14730-14737 (1994), J. Biol. Chem., 267, 23507 (1992), and J. Biol. Chem., 267, 2994 (1992)).
pNp-α-Glc, pNp-β-Glc, pNp-α-GlcNAc, pNp-β-GlcNAc, pNp-α-Gal, oNp-β-Gal, pNp-α-GalNAc, pNp-α-Xyl, oNp-β-Xyl, pNp-α-Fuc, Bz-α-Man, Bz-α-ManNAc, core1-α-pNp, core3-α-pNp, Bz-β-lactoside, GlcNAcβ1-4GlcNAcβ-Bz, and Galβ1-4GlcNAcα-pNp were used as acceptor substrates (see Table 5). These substrates can be purchased from, for example, Sigma Corp. or Toronto Research Chemicals Inc.
A basic reaction solution in the case of using a radiolabeled substrate as the donor substrate comprises 20 μl in total of 14 mM HEPES buffer (pH 7.4), 10 mM MnCl2, 0.15% Triton CF-54, 0.75 mM ATP, 50 μM UDP-GlcNAc (manufactured by Sigma), 4.5 μM (50 nCi) [^14C]UDP-GlcNAc (manufactured by Amersham Biosciences), 10 μM substrate (each of the above-described acceptor substrates), and an appropriate amount (5 to 10 μl) of the purified enzyme protein (enzyme source obtained in Example 4). Enzyme reaction was carried out at 37° C. for several hours up to 16 hours (usually for 16 hours).
After the completion of reaction, the resulting solution was supplemented with 200 μl of 0.1M KCl and lightly centrifuged, and then a supernatant was obtained. After being washed once with 10 ml of methanol, the supernatant was loaded onto Sep-Pak C18 Cartridge (Waters) equilibrated by two-time washing with 10 ml of 0.1 M KCl, and the substrate and a product in the supernatant were adsorbed in the cartridge. After the cartridge was washed twice with 1 ml of pure water for HPLC, the adsorbed substrate and product were eluted with 1 ml of methanol. Following the mixing with a liquid scintillator (ACSII; manufactured by Amersham Biosciences), the amount of radiation from the product was measured with a scintillation counter.

G9 polypeptide [3] = biological target: T1, G9 polypeptide; assay: Buffer and pH dependence of G9 enzyme activity
Method: Buffer conditions were investigated using the same reaction solution and reaction time as above but using HEPES (pH 6.75 to 7.4) and sodium cacodylate (pH 6.4 to 7.2) instead of 14 mM HEPES buffer (pH7.4) (see FIG. 2A).

G9 polypeptide [4] = biological target: T1, G9 polypeptide; assay: Activity measurement with glycoproteins as acceptor substrates (SDS-PAGE, autoradiography, glycopeptidase F digestion); settings: 40 μg acceptor glycoprotein, 37° C., FIG. 4
Method: Enzyme reaction was carried out with glycoproteins as substrates. A reaction solution comprised 20 μl in total of 14 mM HEPES buffer (pH 7.4), 10 mM MnCl2, 0.15% Triton CF-54, 0.75 mM ATP, 50 μM UDP-GlcNAc (manufactured by Sigma), 4.5 μM (50 nCi) [^14C]UDP-GlcNAc (manufactured by Amersham Biosciences), 40 μg of an acceptor substrate, and an appropriate amount (5 to 10 μl) of a purified enzyme protein. A αl-acid glycoprotein (orosomucoid; manufactured by Sigma), ovalbumin (manufactured by Sigma), or ovomucoid (manufactured by Sigma) was used as the above described acceptor substrate. The enzyme purified with the anti-FLAG M1 antibody affinity gel in Example 4 was used as the above-described purified enzyme protein.
Reaction was carried out at 37° C. for several hours up to 16 hours. A portion of a reaction product was subjected to enzyme digestion with glycopeptidase F (GPF; manufactured by TAKARA) according to the instruction. The samples both before and after enzyme digestion were analyzed by 10% SDS-PAGE (see FIG. 4).

[5] = metal ions at 2.5, 10 and 40 mM instead of 10 mM MnCl2, FIG. 2B

Molecule: [Cl-].[Cl-].[Zn+2] [Zn, ZnCl2]
- effect of divalent metal ion on G9 activity (in words) (G9 polypeptide [1]; [5]): no enhancing effect is substantially observed

Molecule: [Cl][Ni][Cl] [Ni, NiCl2]
- effect of divalent metal ion on G9 activity (in words) (G9 polypeptide [1]; [5]): slight enhancing effect

- Relative activity (G9 polypeptide [2]): 100%
Molecule: CC(=O)N[C@H]1[C@@H](Oc2ccc([N+](=O)[O-])cc2)O[C@H](CO)[C@@H](O[C@@H]2O[C@H](CO)[C@H](O)[C@H](O)[C@H]2O)[C@@H]1O [Galβ1-4GlcNAcα-pNP]
- transferring activity for acceptor substrate (in words) (G9 polypeptide [2]): particularly strong activity; also recorded: highest transferring activity

Molecule: [Cl-].[Cl-].[Mg+2] [Mg, MgCl2]
- effect of divalent metal ion on G9 activity (in words) (G9 polypeptide [1]; [5]): no enhancing effect is substantially observed

Molecule: [Cl-].[Cl-].[Co+2] [Co ion, CoCl2]
- effect of divalent metal ion on G9 activity (in words) (G9 polypeptide [1]): significantly enhanced

Molecule: [Cl][Cd][Cl] [Cd, CdCl2]
- effect of divalent metal ion on G9 activity (in words) (G9 polypeptide [1]; [5]): slight enhancing effect

- effect of divalent metal ion on G9 activity (in words) (G9 polypeptide [1]; [5]): particularly remarkably enhanced
Molecule: [Cl][Mn][Cl] [Mn ion, MnCl2]

- Relative activity (G9 polypeptide [2]): 27%
Molecule: OC[C@H]1O[C@@H](O[C@H]2[C@H](O)[C@@H](O)[C@H](OCc3ccccc3)O[C@@H]2CO)[C@H](O)[C@@H](O)[C@H]1O [Lactoside β-Bz]
- transferring activity for acceptor substrate (in words) (G9 polypeptide [2]; listed as Bz-β-lactoside): significant activity; also recorded: a certain amount of transferring activity

- pH of maximum activity (G9 polypeptide [3]; HEPES buffer (pH 6.75 to 7.4), FIG. 2A): ~7.0
- pH dependence of activity (in words) (G9 polypeptide [3]; sodium cacodylate buffer, pH 6.4 to 7.2, FIG. 2A): rises with an increase in pH
B1: G9 polypeptide: novel human β1,3-N-acetyl-D-glucosaminyltransferase, FLAG peptide-fused, amino acids 26 to 397 of SEQ ID NO: 2 (SEQ ID NO: 16) (protein, listed as Homo sapiens)
chain: TSESRLSKAYPSPRGTPPSPTPANPEPTLPANLSTRLGQTIPLPFAYWNQQQWRLGSLPSGDSTETGGCQAWGAAAATEIPDFASYPKDLRRFLLSAACRSFPQWLPGGGGSQVSSCSDTDVPYLLLAVKSEPGRFAERQAVRETWGSPAPGIRLLFLLGSPVGEAGPDLDSLVAWESRRYSDLLLWDFLDVPFNQTLKDLLLLAWLGRHCPTVSFVLRAQDDAFVHTPALLAHLRALPPASARSLYLGEVFTQAMPLRKPGGPFYVPESFFEGGYPAYASGGGYVIAGRLAPWLLRAAARVAPFPFEDVYTGLCIRALGLVPQAHPGFLTAWPADRTADHCAFRNLLLVRPLGPQASIRLWKQLQDPRLQC
modifications: FLAG peptide

- GlcNAc-transferring activity for glycoprotein acceptor substrate (in words) (G9 polypeptide [4]): relatively weak activity
B2: ovalbumin (protein, UniProt P01012 2-386, looked up)
Ovalbumin: GSIGAASMEFCFDVFKELKVHHANENIFYCPIAIMSALAMVYLGAKDSTRTQINKVVRFDKLPGFGDSIEAQCGTSVNVHSSLRDILNQITKPNDVYSFSLASRLYAEERYPILPEYLQCVKELYRGGLEPINFQTAADQARELINSWVESQTNGIIRNVLQPSSVDSQTAMVLVNAIVFKGLWEKAFKDEDTQAMPFRVTEQESKPVQMMYQIGLFRVASMASEKMKILELPFASGTMSMLVLLPDEVSGLEQLESIINFEKLTEWTSSNVMEERKIKVYLPRMKMEEKYNLTSVLMAMGITDVFSSSANLSGISSAESLKISQAVHAAHAEINEAGREVVGSAEAGVDAASVSEEFRADHPFLFCIKHIATNAVLFFGRCVSP
notes: glycoprotein acceptor substrate manufactured by Sigma
